Reference: publication PMC10185560, “Turn air-captured CO2 with methanol into amino acid and pyruvate in an ATP/NAD(P)H-free chemoenzymatic system” (Nature Communications, 2023)

Tests used:
[1] = biological target: T1, LpLSD (Legionella pneumophila, UniProt Q5ZXE1); settings: freshly made enzyme
T1 construct: gene sda-2

[2] = biological target: T2, L protein (Escherichia coli, UniProt P0A9P0); assay: NADH formation at […] nm; assay type: biochemical
T2 construct: gene lpdA
T2 sequence (P0A9P0 2-474): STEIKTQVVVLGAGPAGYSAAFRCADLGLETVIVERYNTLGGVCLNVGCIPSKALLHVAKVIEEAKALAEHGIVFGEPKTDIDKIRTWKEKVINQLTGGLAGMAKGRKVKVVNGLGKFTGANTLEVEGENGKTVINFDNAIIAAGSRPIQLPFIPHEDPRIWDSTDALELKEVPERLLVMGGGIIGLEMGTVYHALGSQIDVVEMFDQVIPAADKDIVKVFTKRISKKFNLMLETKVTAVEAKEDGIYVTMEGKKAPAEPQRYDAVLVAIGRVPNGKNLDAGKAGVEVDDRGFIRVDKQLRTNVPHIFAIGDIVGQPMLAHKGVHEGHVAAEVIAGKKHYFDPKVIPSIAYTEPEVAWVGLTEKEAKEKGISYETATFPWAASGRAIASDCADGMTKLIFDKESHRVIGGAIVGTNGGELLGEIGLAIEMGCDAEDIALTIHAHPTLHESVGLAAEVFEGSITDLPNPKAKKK

[3] = biological target: T3, MsLSD (Mycolicibacterium smegmatis, UniProt A0QY48); assay: residual serine dehydratase activity; assay type: biochemical; settings: 75% loss printed at 20 mM, reactive inactivator
T3 construct: gene MSMEG_3532; described as PLP-dependent
T3 sequence (A0QY48 1-316): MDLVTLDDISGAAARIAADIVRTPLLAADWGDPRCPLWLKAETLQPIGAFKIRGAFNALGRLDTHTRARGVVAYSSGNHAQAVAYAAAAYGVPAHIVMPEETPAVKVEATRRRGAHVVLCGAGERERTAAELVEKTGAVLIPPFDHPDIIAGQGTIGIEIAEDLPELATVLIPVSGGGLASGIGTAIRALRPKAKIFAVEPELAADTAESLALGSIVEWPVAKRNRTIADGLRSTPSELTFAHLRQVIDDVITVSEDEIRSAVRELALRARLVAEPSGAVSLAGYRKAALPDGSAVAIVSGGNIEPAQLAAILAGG

T1 sequence (Q5ZXE1 1-458): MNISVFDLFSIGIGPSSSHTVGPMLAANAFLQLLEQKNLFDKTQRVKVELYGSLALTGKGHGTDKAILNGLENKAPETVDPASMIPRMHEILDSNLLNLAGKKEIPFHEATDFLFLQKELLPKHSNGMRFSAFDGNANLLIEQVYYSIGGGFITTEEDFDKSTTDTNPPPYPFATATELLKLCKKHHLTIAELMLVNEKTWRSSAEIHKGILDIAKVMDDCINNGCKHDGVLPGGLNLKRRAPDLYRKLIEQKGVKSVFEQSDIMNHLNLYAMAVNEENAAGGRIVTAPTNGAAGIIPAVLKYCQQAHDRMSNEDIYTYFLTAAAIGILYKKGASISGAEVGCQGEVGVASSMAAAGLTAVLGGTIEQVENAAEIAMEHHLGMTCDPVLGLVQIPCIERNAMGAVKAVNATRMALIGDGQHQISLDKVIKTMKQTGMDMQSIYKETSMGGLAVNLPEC

SMILES: N[C@@H](CO)C(=O)O [serine]
- pyruvate formation by HPLC [1]: The fresh-made LpLSD enzyme showed similar activities

SMILES: NC(=O)c1ccc[n+]([C@@H]2O[C@H](COP(=O)(O)OP(=O)(O)OC[C@H]3O[C@@H](n4cnc5c(N)ncnc54)[C@H](O)[C@@H]3O)[C@@H](O)[C@H]2O)c1 [NAD^+]
- NADH formation at 340 nm [2]: Hred was then re-oxidized by L-protein in the presence of NAD^+

SMILES: C=O [formaldehyde]
- activity loss at 10 mM formaldehyde [3]: ~ 50%
